#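 Each compound was tested at five concentrations against cells in 96-well plates for 48 hours. Definition used: TGI = concentration required for complete inhibition of growth.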
# Columns and labels:
# Experiment in all cases: NCI-60 cell line screen, 48 h
# [1] = tested on: ACHN renal
# [2] = tested on: K-562 leukemia
# [3] = tested on: MDA-MB-231 breast
# [4] = tested on: SF-268 CNS
# [5] = tested on: SF-539 CNS
# [6] = tested on: SK-MEL-2 melanoma
# [7] = tested on: NCI-H226 lung
# [8] = tested on: UACC-62 melanoma
# [9] = tested on: UACC-257 melanoma
# [10] = tested on: HT29 colon
SMILES,TGI [1] [µM],TGI [2] [µM],TGI [3] [µM],TGI [4] [µM],TGI [5] [µM],TGI [6] [µM],TGI [7] [µM],TGI [8] [µM],TGI [9] [µM],TGI [10] [µM]
O=c1c2cc([N+](=O)[O-])ccc2oc2nc3n(c(=O)c12)CCCS3,> 100,> 100,> 100,> 100,> 100,> 100,> 100,> 100,> 100,
CCOC(=O)N1CCN(c2c(N)nc(C)[nH]c2=O)CC1,> 100,> 100,> 100,> 100,> 100,> 100,> 100,,> 100,> 100
CC[C@H](NC(=O)OC(C)(C)C)C(=O)NCP(=O)(OCc1ccc([N+](=O)[O-])cc1)OCc1ccc([N+](=O)[O-])cc1,69.7,,> 100,> 100,90,> 100,> 100,51.9,26.9,51.8
O=c1c2ccc(Cl)cc2oc2c(CNc3ccc(S(=O)(=O)Nc4ncccn4)cc3)cccc12,> 100,> 100,> 100,,> 100,> 100,> 100,> 100,> 100,> 100
CCN(CC)C(=S)N/N=C(/c1ccccc1)c1ccccn1,5.39,> 100,,,4.24,26.2,7.65,,2.56,> 40.1
N#Cc1c(-c2ccc([N+](=O)[O-])cc2)c(C#N)c(=O)n(NS(=O)(=O)c2ccccc2)c1O,> 100,> 100,> 100,,> 100,> 100,> 100,> 100,> 100,> 100
CC(C)=C/C(CC(O)(C(F)(F)F)C(F)(F)F)=N\O,> 100,> 100,> 100,> 100,> 100,,> 100,> 100,> 100,> 100
CCn1ncc2c(=O)n3ncn(-c4ccc(Br)cc4)c3nc21,> 100,> 100,> 100,> 100,,> 100,> 100,> 100,> 100,> 100
C=C(C)[C@H]1CC23C(=O)[C@@](C)(C[C@H]2C1(C)C)C(=O)C(C(=O)C(C)C)=C3O,30.4,49.3,32.2,50.4,,33.6,30.3,29.8,62.3,26.4
COc1ccc([C@]23CCC4(OCC(C)(C)CO4)[C@H]4CON(O[C@H](O[C@@H]5CCCCC5C(C)(C)c5ccccc5)C2)[C@@H]43)cc1OC (stereo partly drawn),,> 100,> 100,,76.5,> 100,> 100,> 100,> 100,> 100
Cc1ccc(C)c(COCCOCn2cc(N3CCOCC3)c(=O)[nH]c2=O)c1,> 100,> 100,> 100,> 100,> 100,> 100,> 100,> 100,> 100,
O=C1CSC(c2c[nH]c3ccccc23)N1c1ccc(Cl)cc1Cl (stereo not drawn),,> 100,> 100,> 100,> 100,,,> 100,> 100,> 100
